Results from the supplement of paper PMC10307832.

Columns and labels:
Test in all cases: relative viability (nuclei count vs DMSO), 5 days (fraction); higher = more cells survive
[1] = compound: Cc1ccc(C(=O)N(CCCN)[C@@H](c2nc3cc(Cl)ccc3c(=O)n2Cc2ccccc2)C(C)C)cc1 [Ispinesib] + COc1cccc2cc(-c3nc([C@H]4CC[C@H](C(=O)O)CC4)n4ncnc(N)c34)[nH]c12 [OSI-027] (partner 0.5 µM)
Outline: (§1)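 A single step with final 0.05% Triton X-100, 1% formaldehyde and 1 ug/ml Hoechst fixed the cells and stained nuclei 5 days after treatment. Lung cancer cell lines in 1536-well plates had been treated by pin tool the day after seeding with one drug alone or a fixed anchor-drug dose plus five library-drug doses (not always all listed) in √10 steps, and nuclei were counted on 4× images. Relative viability is the ratio of nuclei in treated wells to nuclei in vehicle wells, taken as the median of duplicate plates.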

[2] = compound: Cc1ccc(C(=O)N(CCCN)[C@@H](c2nc3cc(Cl)ccc3c(=O)n2Cc2ccccc2)C(C)C)cc1 [Ispinesib] + NC(=O)Nc1cc(-c2cccc(F)c2)sc1C(=O)N[C@H]1CCCNC1 [AZD7762] (partner 0.2 µM)
Outline: as §1

[3] = compound: C[C@]1(O)C[C@@H](c2nc(-c3ccc4ccc(-c5ccccc5)nc4c3)c3c(N)nccn32)C1 [Linsitinib] + Cc1cc(Nc2cc(N3CCN(C)CC3)nc(Sc3ccc(NC(=O)C4CC4)cc3)n2)n[nH]1 [Tozasertib] (partner 0.1 µM)
Outline: as §1

[4] = compound: Cc1ccc(C(=O)N(CCCN)[C@@H](c2nc3cc(Cl)ccc3c(=O)n2Cc2ccccc2)C(C)C)cc1 [Ispinesib] + COc1cc2c(Oc3ccc(NC(=O)C4(C(=O)Nc5ccc(F)cc5)CC4)cc3F)ccnc2cc1OCCCN1CCOCC1 [Foretinib] (partner 0.25 µM)
Outline: as §1

Row | Cell Line | relative viability ([1]; first compound 0.001 µM) | relative viability ([1]; first compound 0.003162 µM) | relative viability ([1]; first compound 0.01 µM) | relative viability ([1]; first compound 0.03162 µM) | relative viability ([1]; first compound 0.1 µM) | relative viability ([2]; first compound 0.001 µM) | relative viability ([2]; first compound 0.003162 µM) | relative viability ([2]; first compound 0.01 µM) | relative viability ([2]; first compound 0.03162 µM) | relative viability ([2]; first compound 0.1 µM) | relative viability ([3]; first compound 0.01 µM) | relative viability ([3]; first compound 0.03162 µM) | relative viability ([3]; first compound 0.1 µM) | relative viability ([3]; first compound 0.3162 µM) | relative viability ([3]; first compound 1 µM) | relative viability ([4]; first compound 0.001 µM) | relative viability ([4]; first compound 0.003162 µM) | relative viability ([4]; first compound 0.01 µM) | relative viability ([4]; first compound 0.03162 µM) | relative viability ([4]; first compound 0.1 µM)
1 | ChaGo-K-1 | 0.529 | 0.627 | 0.582 | 0.627 | 0.222 | 1.01 | 0.874 | 0.879 | 0.903 | 0.245 | 0.208 | 0.184 | 0.221 | 0.227 | 0.2 | 0.909 | 0.867 | 0.993 | 0.926 | 0.629
2 | HCC-78 | 0.439 | 0.448 | 0.368 | 0.345 | 0.318 | 0.691 | 0.592 | 0.532 | 0.526 | 0.422 | 0.643 | 0.482 | 0.418 | 0.378 | 0.319 | 0.558 | 0.567 | 0.542 | 0.525 | 0.559
3 | NCI-H1666 | 0.749 | 0.889 | 0.864 | 0.712 | 0.476 | 0.872 | 0.922 | 0.898 | 0.699 | 0.641 | 0.595 | 0.628 | 0.587 | 0.545 | 0.434 | 1.03 | 0.989 | 0.903 | 0.918 | 0.539
4 | EKVX | 0.731 | 0.75 | 0.777 | 0.75 | 0.634 | 0.777 | – | 0.767 | 0.464 | 0.303 | 0.362 | 0.385 | 0.493 | 0.214 | 0.352 | 0.897 | 0.85 | 1.05 | 0.604 | 0.275
5 | NCI-H322M | 0.621 | 0.529 | 0.549 | 0.448 | 0.331 | 0.561 | 0.654 | 0.464 | 0.494 | 0.484 | 0.44 | 0.455 | 0.568 | 0.399 | 0.463 | 1.09 | 0.994 | 0.957 | 0.498 | 0.43
6 | HARA | 0.641 | 0.553 | 0.535 | 0.0672 | 0.0972 | 0.501 | 0.345 | 0.365 | 0.308 | 0.227 | 0.135 | 0.106 | 0.202 | – | 0.138 | 1.18 | 0.931 | 0.976 | 1.04 | 0.132
7 | NCI-H1437 | 1.1 | 0.881 | 1.16 | 0.938 | 0.263 | 1.16 | 1.15 | 1.18 | 1.13 | 0.296 | 0.388 | 0.352 | 0.444 | 0.333 | 0.451 | 1.3 | 1.39 | 1.39 | 1.27 | 0.748
8 | BEN | 0.312 | 0.306 | 0.341 | 0.38 | 0.202 | 0.745 | 0.85 | 0.678 | 0.472 | 0.347 | 0.537 | 0.611 | 0.481 | 0.377 | 0.486 | 0.674 | 0.96 | 0.686 | 0.342 | 0.201
9 | LXF-289 | 0.813 | 0.834 | 0.806 | 0.593 | 0.0721 | 1.09 | 1.12 | 1.22 | 0.788 | 0.119 | 0.184 | 0.193 | 0.196 | – | 0.148 | 0.911 | 0.978 | 1.09 | 0.894 | 0.895
10 | NCI-H358 | 0.999 | 0.837 | 1.02 | 0.392 | 0.129 | 0.654 | 0.462 | 0.514 | 0.433 | 0.253 | 0.0907 | 0.0851 | 0.114 | 0.0862 | 0.0939 | 0.694 | 0.695 | 0.702 | 0.28 | 0.123
11 | NCI-H1993 | 0.518 | 0.601 | 0.565 | 0.514 | 0.442 | 0.918 | 0.821 | 0.636 | 0.646 | 0.508 | 0.561 | 0.606 | 0.619 | 0.579 | 0.602 | 0.694 | 0.786 | 0.802 | 0.756 | 0.633
12 | NCI-H727 | 0.856 | 0.707 | 0.604 | 0.404 | 0.361 | 0.722 | 0.564 | – | 0.548 | 0.498 | 0.643 | 0.67 | 0.689 | 0.623 | 0.523 | 0.944 | 0.873 | 0.933 | 0.91 | 0.718
13 | LOU-NH91 | 0.72 | 0.776 | 0.83 | 0.59 | 0.236 | 0.807 | 0.854 | 0.877 | 0.432 | 0.297 | 0.705 | 0.642 | 0.708 | 0.531 | 0.594 | 0.917 | 0.879 | 0.957 | 0.829 | 0.472
14 | NCI-H1975 | 0.781 | 0.819 | 0.991 | 0.258 | 0.127 | 0.678 | 0.829 | 0.781 | 0.617 | 0.279 | 0.691 | 0.677 | 0.865 | 0.665 | 0.311 | 0.996 | 0.934 | 1.05 | 0.632 | 0.144
15 | PC-3 [JPC-3] | 0.703 | 0.841 | 0.851 | 0.627 | 0.431 | 0.937 | 0.9 | 0.798 | 0.542 | 0.368 | 0.87 | 0.911 | 0.904 | 0.777 | 0.793 | 1.09 | 1.1 | 0.594 | 1.07 | 0.751
